The subject of one experiment is HSV. As to conditions: cited from earlier work.
For a further experiment, the system named is HSV-1. The experiment in a line: Fractionation and in situ localization of virus DNA. The class given is cell-based, HSV-1 Glasgow strain 17. As to conditions: 100 μg/ml cycloheximide, 1 hpi.

Consider four compounds from patent US6756368B1, “Use of cobalt chelates for treating or preventing virus infection” (The Trustees of Columbia University in the City of New York, priority 1999, dated 2004).

In the case of `Cc1ccc(C(=O)Nc2ccc(S(=O)(=O)O)c3cc(S(=O)(=O)O)cc(S(=O)(=O)O)c23)cc1NC(=O)c1cccc(NC(=O)Nc2cccc(C(=O)Nc3cc(C(=O)Nc4ccc(S(=O)(=O)O)c5cc(S(=O)(=O)O)cc(S(=O)(=O)O)c45)ccc3C)c2)c1` [Sumarin], in the experiment on HSV, the “HSV attachment / virus binding” value is “able to block HSV attachment” and the “cell-to-cell spread of HSV” value is reported as “able to inhibit cell-to-cell spread”.
Take `C[C@@H]1C[C@@H]([C@H](O)CC2CC(=O)NC(=O)C2)C(=O)[C@@H](C)C1` [cycloheximide, reference compound]: the “virus DNA associated with the nuclear fraction versus no drug control” value in the experiment on HSV-1 is recorded as “no effect on the amount of virus DNA associated with the nuclear fraction”.
On to `CCCCCCCCCCCCCCCCCCCCCCO` [n-docosanol], for which, in the experiment on HSV, the “HSV attachment / virus binding” value is “does not inhibit virus binding” and the “step inhibited instead of binding” value is reported as “fusion of the virus envelope with the cell's plasma membrane”.
With Heparin, the “HSV attachment / virus binding” value in the experiment on HSV is recorded as “can block attachment”.
